Patent publication US4168206A, “Impregnated disk method for testing antifungal susceptibility” (Philadelphia College of Osteopathic Medicine, priority 1977, dated 1979)

What was measured:
Candida albicans [1] = assay: Susceptibility to combination of antifungal agents on disks (Example 2); assay type: cell-based; conditions: Candida albicans isolate; in combination with amphotericin B
From the text: (§1) The method of the present invention also may be used to test combinations of antifungal agents. In this method, more than one antifungal agent of known concentration is impregnated in each test disk.
(§2) Each disk is impregnated with a particular known concentration of at least one particular antifungal agent, except for the control disks. When the susceptibility of a fungus to combinations of antifungal agents is being tested, more than one antifungal agent is impregnated in each test disk.
(§3) The susceptibility of two other isolates to combinations of antifungal agents were tested by combining more than one antifungal agent on each test disk. A series of test disks were prepared containing various combinations of antifungal agents in various concentrations and were used in the method of the present invention. The results of this procedure are summarized in the following specific, non-limiting examples:
This is a significant reduction in amphotericin B.

Candida tropicalis = assay: Susceptibility to combination of antifungal agents on disks (Example 3); assay type: cell-based; conditions: in combination with amphotericin B 0.05 μg/ml
From the text: as §1, §2, §3
An isolate of Candida tropicalis was initially tested for amphotericin B susceptibility of 0.5 μg/ml. When a combination of amphotericin B and tetracycline were combined on the disks used in the testing procedure according to the present invention, effective inhibition of the isolate occurred using 0.05 μg/ml of amphotericin B and 0.2 μg/ml of tetracycline.

Cryptococcus neoformans [2] = assay: MIC by impregnated disk method, Cryptococcus neoformans; assay type: cell-based
Experimental: (§4) Stock solutions of the antifungal agents to be tested are preferably prepared by diluting the antifungal agents in the proper nutrient medium. It is presently preferred to prepare dilutions in 10 ml of the proper medium to give the following final concentrations when applied to the disks (all quantities in micrograms per milliliter): 0.05, 0.08, 0.09, 0.1; 0.1 increment increases to 0.9, 1.0; 0.5 increment increases to 10.0; and 12.0, 14.0, 20.0, 25.0 and 50.0. Disks have been prepared by placing 0.05 ml of the above dilutions of antifungal agent containing medium on 6.5 mm diameter disks in 0.01 or 0.02 ml increments. The impregnated disks are then allowed to dry at a temperature preferably below about 10° C. […] The disks may also be dried by a lyophilization or freeze drying process.
(§5) To perform the tests in accordance with the present inventions, disks impregnated with various concentrations of antifungal agent and nutrient medium and a control disk impregnated only with the corresponding nutrient medium are placed on the fungus to be tested which has been applied to the non-nutrient medium. The disks are the inoculated non-nutrient medium are then incubated at a suitable temperature for a sufficient time to promote growth of the fungus. Any temperature is suitable if it will promote growth of the fungus without adversely affecting the fungus or the activity of the antifungal agent or agents tested. The time of incubation can be determined by observing the extent of growth around the control disk. […] The zones of growth or inhibition around the disks were read at 6, 12, 24, 36 and 48 hours after the disks were placed on the tested fungus.
(§6) The minimum inhibitory concentration is defined as the lowest concentration of antifungal agent which inhibits visible growth. The disks containing concentrations of antifungal agents below the minimum inhibitory concentration show circumscribed growth of the fungus around the disk. Disks containing concentrations of antifungal agent at or above the minimum inhibitory concentration show no circumscribed growth.
(§7) Clinical isolates of various fungi listed in Table 1 were obtained from different patients diagnosed as having fungal infections. The fungal inocula were prepared by using a 24-48 hour cultures grown in yeast nitrogen base containing 1% glucose and 0.15% asparagine. After centrifuging, the supernatant was removed, the sedimented cells were washed twice with sterile distilled water and a cell suspension was adjusted to 80% transmission at 520 nm using a Beckman DB-GT grating spectrophotometer.
(§8) Sterile liquified 2% purified agar was placed in petri dishes and allowed to harden. The surface of the agar was inoculated with a sterile cotton swab saturated with a suspension of an organism. The uniformly swabbed plates were then allowed to dry.
(§9) Disks were prepared using the dilutions described above for amphotericin B, nystatin and 5-fluorocytosine. 0.05 ml of the dilutions of each antifungal agent diluted with the appropriate nutrient medium were pipetted on 6.5 mm diameter disks. The disks were dried at 4° C. after each application. Control disks were also prepared.
(§10) Several test disks and a control disk were placed in each petri dish containing the inoculated agar. The disks and petri dishes were then incubated at 29° C. and the minimum inhibitory concentration of the various concentrations of the antifungal agents were read at 6, 12, 24, 36 and 48 hours.
(§11) In 10 duplicate runs with each strain tested, the variation in minimum inhibitory concentration averaged ±0.05 μg/ml.

Cryptococcus neoformans [3] = assay: MIC by broth dilution method, Cryptococcus neoformans; assay type: cell-based
From the text: (§12) The preparation of the nutrient media, the antifungal agents and the fungi to be tested in the present invention are similar to those reported in S. Shadomy and A. Espinel-Ingroff, "Susceptibility Testing Of Antifungal Agents", Ch. 63, pp. 569-574 in E. H. Lennett, E. H. Spaulding, and J. P. Truant, Eds., Manual Of Clinical Microbiology, 2nd Ed., American Society for Microbiology, Washington, D.C. (1974). This publication describes the susceptibility testing of antifungal agents, namely, amphotericin B, nystatin and 5-fluoro-cytosine (5-FC), by the "broth dilution method" and the "semisolid agar dilution method". At pages 570-571, it is stated:
as §11
(§13) *Broth dilution method conducted in accordance with S. Shadomy and E.
(§14) Espinel-Ingroff, "Susceptibility Testing of Antifungal Agents", Ch. 63,
(§15) pp. 569-574 in E. H. Spaulding and J. P. Truant, Eds., Manual Of Clinical
(§16) Microbiology, 2nd Ed., American Society for Microbiology, Washington, […]

Geotrichum candidum [4] = assay: MIC by impregnated disk method, Geotrichum candidum; assay type: cell-based; conditions: disk method
Experimental: as §4, §5
(§17) The minimum inhibitory concentration is defined as the lowest concentration of antifungal agent which inhibits visible growth. […]
(§18) Several test disks and a control disk were placed in each petri dish containing the inoculated agar. The disks and petri dishes were then incubated at 29° C. and the minimum inhibitory concentration of the various concentrations of the antifungal agents were read at 6, 12, 24, 36 and 48 hours. […]

Trichosporon sp. [5] = assay: MIC by broth dilution method, Trichosporon sp.; assay type: cell-based; conditions: Trichosporon sp.; broth dilution method
From the text: as §12, §11, §13, §14, §15, §16

C. tropicalis [6] = assay: MIC by broth dilution method, Candida tropicalis; assay type: cell-based; conditions: C. tropicalis; broth dilution method
From the text: as §12, §11, §13, §14, §15, §16

Candida albicans [7] = assay: MIC by impregnated disk method, Candida albicans; assay type: cell-based
Experimental: as §4, §5, §6, §7, §8, §9, §10, §11

Torulopsis glabrata [8] = assay: MIC by impregnated disk method, Torulopsis glabrata; assay type: cell-based; conditions: Torulopsis glabrata; disk method
Experimental: as §4, §5, §17, §18

C. parapsilosis [9] = assay: MIC by impregnated disk method, Candida parapsilosis; assay type: cell-based
Experimental: as §4, §5, §6, §7, §8, §9, §10, §11

Saccharomyces cerevisiae [10] = assay: MIC by impregnated disk method, Saccharomyces cerevisiae; assay type: cell-based
Experimental: as §4, §5, §6, §7, §8, §9, §10, §11

Geotrichum candidum [11] = assay: MIC by broth dilution method, Geotrichum candidum; assay type: cell-based; conditions: broth dilution method
From the text: as §12, §11, §13, §14, §15, §16

Trichosporon sp. [12] = assay: MIC by impregnated disk method, Trichosporon sp.; assay type: cell-based; conditions: Trichosporon sp.; disk method
Experimental: as §4, §5, §17, §18

C. tropicalis [13] = assay: MIC by impregnated disk method, Candida tropicalis; assay type: cell-based; conditions: C. tropicalis; disk method
Experimental: as §4, §5, §17, §18

C. parapsilosis [14] = assay: MIC by broth dilution method, Candida parapsilosis; assay type: cell-based
From the text: as §12, §11, §13, §14, §15, §16

Torulopsis glabrata [15] = assay: MIC by broth dilution method, Torulopsis glabrata; assay type: cell-based; conditions: Torulopsis glabrata; broth dilution method
From the text: as §12, §11, §13, §14, §15, §16

Saccharomyces cerevisiae [16] = assay: MIC by broth dilution method, Saccharomyces cerevisiae; assay type: cell-based
From the text: as §12, §11, §13, §14, §15, §16

[17] = cited from earlier work
Candida albicans [18] = assay: MIC by broth dilution method, Candida albicans; assay type: cell-based
From the text: as §12, §11, §13, §14, §15, §16

[19] = Cryptococcus neoformans isolate 1
[20] = Saccharomyces cerevisiae isolate 1

## CN(C)C1C(=O)C(C(N)=O)=C(O)C2(O)C(=O)C3=C(O)c4c(O)cccc4C(C)(O)C3CC12 (stereo not drawn) [tetracycline]
Candida albicans [1]
  tetracycline susceptibility: 0.1 µg/mL
Candida tropicalis
  effective inhibition of the isolate, concentration of tetracycline: 0.2 µg/mL

## C[C@@H]1[C@H](O)[C@@H](C)/C=C/C=C/CC/C=C/C=C/C=C/C=C/C(O[C@H]2O[C@H](C)[C@@H](O)[C@H](N)[C@@H]2O)CC2O[C@](O)(CC(O)C(O)CCC(O)CC(O)CC(O)CC(=O)O[C@H]1C)CC(O)C2C(=O)O (stereo partly drawn) [Nystatin, nystatin]
Cryptococcus neoformans [2]; C. neoformans isolate 2
  Minimum Inhibitory Concentration, Disk: 3.00 µg/mL
Cryptococcus neoformans [2]; [19]
  Minimum Inhibitory Concentration, Disk: 2.00 µg/mL
Cryptococcus neoformans [3]; C. neoformans isolate 2
  Minimum Inhibitory Concentration, Broth: 3.00 µg/mL
Cryptococcus neoformans [3]; [19]
  Minimum Inhibitory Concentration, Broth: 2.50 µg/mL
Geotrichum candidum [4]
  Minimum Inhibitory Concentration, Disk: 5.00 µg/mL
Trichosporon sp. [5]
  Minimum Inhibitory Concentration, Broth: 3.00 µg/mL
C. tropicalis [6]
  Minimum Inhibitory Concentration, Broth: 6.00 µg/mL
Candida albicans [7]; isolate 1
  Minimum Inhibitory Concentration, Disk: 1.50 µg/mL
Candida albicans [7]; isolate 2
  Minimum Inhibitory Concentration, Disk: 4.50 µg/mL
Candida albicans [7]; isolate 3
  Minimum Inhibitory Concentration, Disk: 1.50 µg/mL
Candida albicans [7]; isolate 4
  Minimum Inhibitory Concentration, Disk: 3.50 µg/mL
Candida albicans [7]; isolate 5
  Minimum Inhibitory Concentration, Disk: 4.00 µg/mL
Candida albicans [7]; isolate 6
  Minimum Inhibitory Concentration, Disk: 6.50 µg/mL
Candida albicans [7]; isolate 7
  Minimum Inhibitory Concentration, Disk: 0.30 µg/mL
Torulopsis glabrata [8]
  Minimum Inhibitory Concentration, Disk: 3.00 µg/mL
C. parapsilosis [9]; C. parapsilosis isolate 1
  Minimum Inhibitory Concentration, Disk: 3.50 µg/mL
C. parapsilosis [9]; C. parapsilosis isolate 2
  Minimum Inhibitory Concentration, Disk: 4.50 µg/mL
Saccharomyces cerevisiae [10]; S. cerevisiae isolate 2
  Minimum Inhibitory Concentration, Disk: 1.00 µg/mL
Saccharomyces cerevisiae [10]; [20]
  Minimum Inhibitory Concentration, Disk: 2.00 µg/mL
Geotrichum candidum [11]
  Minimum Inhibitory Concentration, Broth: 4.50 µg/mL
Trichosporon sp. [12]
  Minimum Inhibitory Concentration, Disk: 3.50 µg/mL
C. tropicalis [13]
  Minimum Inhibitory Concentration, Disk: 5.50 µg/mL
C. parapsilosis [14]; C. parapsilosis isolate 1
  Minimum Inhibitory Concentration, Broth: 4.50 µg/mL
C. parapsilosis [14]; C. parapsilosis isolate 2
  Minimum Inhibitory Concentration, Broth: 5.00 µg/mL
Torulopsis glabrata [15]
  Minimum Inhibitory Concentration, Broth: 4.50 µg/mL
Saccharomyces cerevisiae [16]; S. cerevisiae isolate 2
  Minimum Inhibitory Concentration, Broth: 2.00 µg/mL
Saccharomyces cerevisiae [16]; [20]
  Minimum Inhibitory Concentration, Broth: 2.50 µg/mL
[17]; in the presence of acid
  stability in acid: unstable in the presence of acid
[17]; upon incubation
  thermal stability: subject to thermal destruction upon incubation
[17]; water
  solubility in water: insoluble in water
Candida albicans [18]; isolate 1
  Minimum Inhibitory Concentration, Broth: 1.50 µg/mL
Candida albicans [18]; isolate 2
  Minimum Inhibitory Concentration, Broth: 5.00 µg/mL
Candida albicans [18]; isolate 3
  Minimum Inhibitory Concentration, Broth: 1.50 µg/mL
Candida albicans [18]; isolate 4
  Minimum Inhibitory Concentration, Broth: 3.50 µg/mL
Candida albicans [18]; isolate 5
  Minimum Inhibitory Concentration, Broth: 4.00 µg/mL
Candida albicans [18]; isolate 6
  Minimum Inhibitory Concentration, Broth: 6.00 µg/mL
Candida albicans [18]; isolate 7
  Minimum Inhibitory Concentration, Broth: 0.20 µg/mL
